# Measured values: PMC12009420, “Dynamically chiral phosphonic acid-type metallo-β-lactamase inhibitors” (Communications Chemistry, 2025)
# Where two headings read alike, the source gives them in different places.
# Legend:
# VIM-2 [1] = target: T1, VIM-2 (Escherichia coli, UniProt Q5U7L7); assay: Enzyme steady state kinetic studies (inhibitor 5g and VIM-2); assay type: biochemical; conditions: for Ki / Vmax: nitrocefin
# Procedure: Enzyme steady state kinetic studies were performed to determine the mechanism of inhibition using inhibitor 5g and VIM-2 (Section 7, Supplementary Information). […] Assays were conducted in triplicates on a 96 well plate. Absorbance was measured at 482 nm using a SpectraMax 190 plate reader. Solutions of 300 μL consisting of buffer, purified enzyme (0.3 nM VIM-2), inhibitor 5g and reporter substrate nitrocefin with final 2.5% DMSO were incubated in triplicates on a 96 well plate for 5 min at 30 °C. Buffer solution consisted of 50 mM HEPES pH 7.2, 50 μM ZnSO4 and 0.4 mg/ml bovine serum albumin.
# 7. Enzyme kinetic studies
# Enzyme steady state kinetic studies were performed to determine the mechanism of inhibition using inhibitor 5g and VIM-2. Km’, Ki and Vmax values were determined (Table S6).
# For data analysis, SimFit software was used to fit the initial reaction velocities (v₀) to a Michaelis-Menten (1:1) model (Figure S40a). […]
# Table S6. Kinetic parameters (Km’, Ki and vmax values) of inhibitor 5g against VIM-2 using nitrocefin as reporter substrate.
# Figure S40. a, Michaelis-Menten fitting of the substrate concentration dependence of initial reaction velocities. b, Double reciprocal plot of the data in a, for VIM-2 in the absence and presence of inhibitor 5g at two concentrations (36 μM and 72 μM) using nitrocefin as substrate. [I] is the concentration of inhibitor 5g.
# GIM-1 [2] = target: T2, GIM-1 (Pseudomonas aeruginosa, UniProt Q704V1); assay: Enzymatic metallo-β-lactamase assay on purified GIM-1; assay type: biochemical; conditions: approximated from Dixon plots (1/v vs [I]) at one constant substrate concentration; ± SE; read-out: Estimated inhibition constant Ki GIM-1
# MTT cytotoxicity assay = assay type: cell-based; conditions: human, HepG2 cells
# Procedure: Cytotoxic activity of the compounds was measured through the MTT colorimetric assay as previously described[60] using the Colorimetric (MTT) Kit for Cell Survival and Proliferation (Merck/Millipore; Darmstadt, Germany). HepG2 cells (human hepatocellular carcinoma cell line) were kept in penicillin/streptomycin-free medium overnight and then they were treated with the compounds for 24 h. Subsequently, the MTT reagent was added to the cells and after 3 h of incubation, MTT-derived formazan crystals were solubilized in acidified isopropanol (0.1 mL isopropanol with 0.04 N HCl). Absorbance was measured with multiscan spectrophotometer (Thermo Fisher Scientific) at 530 nm test and 630 nm reference wavelengths. Cell viability was expressed as the percentage of viable, untreated cells. CC50 values were determined with GraphPad Prism software (v9.3.1) and adjusted to dose-response curves by non-linear regression (Supplementary Table S7).
# 8. Cytotoxocity against HepG2 cells
# Table S7. CC50 values and viability curves of metallo-β-lactamase inhibitors tested on HepG2 […]
# cells. […]
# range. Data are shown as % via bility values ± SEM (n=4). Calculations were done using […]
# Inhibitors CC50 (μM) HepG2 […]
# GIM-1 [3] = target: T2, GIM-1; assay: Enzymatic metallo-β-lactamase assay on purified GIM-1; assay type: biochemical
# Procedure: (§1) A few inhibitors were tested up to 1600 μM to ensure nearly complete inhibition. Solutions of 100 μL consisting of buffer, purified enzyme (1 nM for GIM-1 and VIM-2, 5 nM for NDM-1), inhibitor and reporter substrate nitrocefin (15 μM for VIM-2, 2 μM for GIM-1) or imipenem (30 μM for NDM-1) were incubated in triplicates on a 96 well plate for 5 min at 25 °C. Buffer solution consisted of 50 mM HEPES pH 7.2, 50 μM ZnSO4 and 0.4 mg/ml bovine serum albumine. Inhibitors were dissolved in DMSO but diluted to assure <2% DMSO in measured assay. Absorbance was measured at 482 nm (nitrocefin) and 300 nm (imipenem) on a SpectraMax M4 spectrophotometer. The initial velocity at each inhibitor concentration was analyzed in GraphPad Prism v9.3.1 and fitted to dose-response curves by non-linear regression (log [inhibitor] vs response) used to calculate IC50 (Supplementary Tables S2–5).
# VIM-2 [4] = target: T1, VIM-2; assay: Enzymatic metallo-β-lactamase assay on purified VIM-2; assay type: biochemical
# Procedure: as §1
# T2 sequence (Q704V1 entry or part of it): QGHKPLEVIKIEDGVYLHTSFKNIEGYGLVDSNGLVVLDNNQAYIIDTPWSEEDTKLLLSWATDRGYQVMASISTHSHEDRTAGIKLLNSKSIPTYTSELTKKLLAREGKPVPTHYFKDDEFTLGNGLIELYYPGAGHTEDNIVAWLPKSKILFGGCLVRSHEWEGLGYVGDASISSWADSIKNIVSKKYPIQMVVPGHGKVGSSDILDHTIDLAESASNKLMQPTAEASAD
compound,measurement,setting,value
O=C(NC(c1ccccc1O)P(=O)(O)O)c1scc2c1CCCC2 (centres unmarked) [5g],Ki,"VIM-2 [1]; Michaelis-Menten fit and Lineweaver-Burk plot, 30 °C",36 ± 3.3 µM
same,Ki,VIM-2 [1]; [I] 36 μM,31.3 µM
same,Ki,VIM-2 [1]; [I] 72 μM,40.7 µM
same,inhibition mode,VIM-2 [1]; Michaelis-Menten model and Lineweaver-Burk plot,competitive inhibition
same,Vmax,VIM-2 [1]; [I] 36 μM,50.0 ΔA/min
same,Vmax,VIM-2 [1]; [I] 72 μM,47.0 ΔA/min
same,Ki,GIM-1 [2],113 ± 66 µM
same,CC50 at 24 h,"MTT cytotoxicity assay; HepG2, MTT, read-out: CC50 (in viability curve)",1400 µM
same,CC50 at 24 h,"MTT cytotoxicity assay; MTT, 0.0025 mM - 1mM concentration range, read-out: Cytotoxicity CC50 HepG2",1420 µM
same,logIC50 GIM-1,"GIM-1 [3]; log of IC50, ± SEM of logIC50",1.33 ± 0.11 μM
same,IC50,"GIM-1 [3]; purified enzyme 1 nM, nitrocefin 2 μM, pH 7.2, 25 °C",21 µM
same,Ki,"VIM-2 [4]; approximated from Dixon plots (1/v vs [I]) at one constant substrate concentration, ± SE, read-out: Estimated inhibition constant Ki VIM-2",43 ± 15 µM
same,logIC50 VIM-2,"VIM-2 [4]; log of IC50, ± SEM of logIC50",1.06 ± 0.04 μM
same,IC50,"VIM-2 [4]; purified enzyme 1 nM, nitrocefin 15 μM, pH 7.2, 25 °C",12 µM
